Measured values reported in US5457095A, “Substituted propane-phosponous acid compounds” (Ciba-Geigy Corporation, priority 1984, dated 1995).

Legend:
GABAB receptor sites = GABAB receptor sites (Homo sapiens, UniProt Q9UBS5); test: affinity towards GABAB receptor sites; assay type: binding
rotarod mice = test: muscle relaxant activity, rotarod mice; assay type: in vivo; details: Mus musculus, ip, read-out: ID50-value, muscle relaxant (rotarod mice)
[1] = tested on: phenylquinone writhing in mice; test: analgesic activity, phenylquinone writhing in mice; assay type: in vivo; details: Mus musculus, po
[2] = tested on: audiogenic seizures in DBA/2 mice; test: anticonvulsant activity, audiogenic seizures in DBA/2 mice; assay type: in vivo; details: Mus musculus, ip, read-out: ID50-value, anticonvulsant (audiogenic seizures in DBA/2 mice)
lethality at high dose = assay type: in vivo; details: dose of 200 mg/kg i.p.

Chain of GABAB receptor sites (Q9UBS5 15-961 limits assumed): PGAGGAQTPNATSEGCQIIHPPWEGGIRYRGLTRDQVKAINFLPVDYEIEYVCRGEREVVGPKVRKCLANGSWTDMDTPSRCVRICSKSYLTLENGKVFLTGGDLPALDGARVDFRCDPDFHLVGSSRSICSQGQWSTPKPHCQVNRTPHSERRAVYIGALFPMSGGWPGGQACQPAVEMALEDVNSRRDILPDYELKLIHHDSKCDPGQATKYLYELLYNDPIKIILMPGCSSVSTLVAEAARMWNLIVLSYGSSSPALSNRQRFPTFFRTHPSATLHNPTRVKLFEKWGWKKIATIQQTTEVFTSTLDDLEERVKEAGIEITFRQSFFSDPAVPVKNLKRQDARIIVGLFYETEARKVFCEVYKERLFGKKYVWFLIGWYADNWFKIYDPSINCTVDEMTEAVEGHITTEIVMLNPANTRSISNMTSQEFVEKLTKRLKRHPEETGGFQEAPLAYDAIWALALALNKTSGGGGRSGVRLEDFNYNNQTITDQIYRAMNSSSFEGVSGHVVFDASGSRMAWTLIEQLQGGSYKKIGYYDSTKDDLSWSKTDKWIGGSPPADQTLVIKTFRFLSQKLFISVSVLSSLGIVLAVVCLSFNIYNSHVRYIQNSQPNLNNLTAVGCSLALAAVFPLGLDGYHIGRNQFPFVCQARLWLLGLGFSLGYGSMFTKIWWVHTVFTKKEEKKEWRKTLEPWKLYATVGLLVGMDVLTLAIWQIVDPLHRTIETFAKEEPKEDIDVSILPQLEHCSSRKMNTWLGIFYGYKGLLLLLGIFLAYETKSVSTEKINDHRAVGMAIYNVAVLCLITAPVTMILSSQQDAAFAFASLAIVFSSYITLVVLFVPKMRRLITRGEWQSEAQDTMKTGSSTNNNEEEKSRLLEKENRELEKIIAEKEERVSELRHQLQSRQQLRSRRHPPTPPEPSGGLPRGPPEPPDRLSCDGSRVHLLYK
Chain of GABAB receptor sites (O75899 42-941 partner): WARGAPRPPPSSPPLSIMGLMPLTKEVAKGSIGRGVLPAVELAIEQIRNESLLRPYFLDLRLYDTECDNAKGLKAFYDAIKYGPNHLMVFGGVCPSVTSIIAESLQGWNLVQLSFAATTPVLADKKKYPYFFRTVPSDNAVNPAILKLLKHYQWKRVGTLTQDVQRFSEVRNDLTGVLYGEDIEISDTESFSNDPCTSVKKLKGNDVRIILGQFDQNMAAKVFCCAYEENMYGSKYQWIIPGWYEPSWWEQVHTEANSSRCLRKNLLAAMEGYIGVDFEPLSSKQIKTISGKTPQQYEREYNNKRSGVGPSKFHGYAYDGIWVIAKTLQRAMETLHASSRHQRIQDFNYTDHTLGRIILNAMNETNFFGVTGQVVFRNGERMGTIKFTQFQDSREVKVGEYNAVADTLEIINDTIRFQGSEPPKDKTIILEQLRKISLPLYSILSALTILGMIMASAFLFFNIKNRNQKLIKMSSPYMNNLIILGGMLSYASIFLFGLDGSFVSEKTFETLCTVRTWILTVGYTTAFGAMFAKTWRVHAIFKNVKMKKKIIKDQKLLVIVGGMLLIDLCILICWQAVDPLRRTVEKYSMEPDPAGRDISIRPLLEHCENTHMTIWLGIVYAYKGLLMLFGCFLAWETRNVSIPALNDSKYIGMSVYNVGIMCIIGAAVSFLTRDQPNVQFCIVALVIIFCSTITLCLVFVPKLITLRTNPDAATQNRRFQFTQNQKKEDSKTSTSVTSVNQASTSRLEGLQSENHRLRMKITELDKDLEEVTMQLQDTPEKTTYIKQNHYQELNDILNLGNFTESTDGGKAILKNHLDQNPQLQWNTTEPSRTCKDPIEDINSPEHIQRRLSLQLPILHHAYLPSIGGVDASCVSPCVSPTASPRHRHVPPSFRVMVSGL

Row | Structure (SMILES) | activity relative to baclofen (times more pronounced) (GABAB receptor sites; compared with baclofen) | IC50 (GABAB receptor sites; read-out: IC50-value at the GABAB receptor site) [nM] | ED50 (rotarod mice) [mg/kg] | ED50 [1] [mg/kg] | ED50 [2] [mg/kg] | deaths (lethality at high dose)
1 | NCCCP(O)O [Example 1, 3-aminopropylphosphonous acid] | at least 20 times |  |  |  |  | 
2 | NCC(CP(O)O)c1ccc(Cl)cc1 (stereo not drawn) [Example 8, 3-amino-2-(4-chlorophenyl)propylphosphonous acid] |  | 35 | 6 to 9 | 4 | 6 | no deaths were observed
